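Tested at 5 concentrations; 48 h exposure; 96-well plates; endpoints linearly interpolated, else capped at highest concentration. At the GI50, growth is halved.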 Calls of active or inactive are those of the source. Rule as the data show it: active = GI50 up to about 1.1 µM and inactive = higher.
Assays:
Assay in all cases: NCI anticancer screen, dose series, 48 h
KM12 = tested on: KM12
K562 = tested on: K562
SNB-75 = tested on: SNB-75
EKVX = tested on: EKVX
IGROV-1 = tested on: IGROV-1
NCI-H23 = tested on: NCI-H23
MOLT-4 = tested on: MOLT-4
A498 = tested on: A498
NCI-H226 = tested on: NCI-H226
HCT-116 = tested on: HCT-116
COLO 205 = tested on: COLO 205
HCC 2998 = tested on: HCC 2998
MCF7 = tested on: MCF7
BT-549 = tested on: BT-549
RXF 393 = tested on: RXF 393
UO-31 = tested on: UO-31
SF-539 = tested on: SF-539
LOX IMVI = tested on: LOX IMVI
SN12C = tested on: SN12C
PC-3 = tested on: PC-3

Compound	GI50 (KM12)	GI50 (K562)	GI50 (SNB-75)	GI50 (EKVX)	GI50 (IGROV-1)	GI50 (NCI-H23)	GI50 (MOLT-4)	GI50 (A498)	GI50 (NCI-H226)	GI50 (HCT-116)	GI50 (COLO 205)	GI50 (HCC 2998)	GI50 (MCF7)	GI50 (BT-549)	GI50 (RXF 393)	GI50 (UO-31)	GI50 (SF-539)	GI50 (LOX IMVI)	GI50 (SN12C)	GI50 (PC-3)
Clc1ccc(-c2nc3ccc4ccccc4c3c3c2CCCC3)cc1	> 100 µM (inactive)	> 100 µM (inactive)	> 100 µM (inactive)	30.1 µM (inactive)	> 100 µM (inactive)	> 100 µM (inactive)	> 100 µM (inactive)	> 100 µM (inactive)	> 100 µM (inactive)	50.5 µM (inactive)	> 100 µM (inactive)	> 100 µM (inactive)	> 100 µM (inactive)	> 100 µM (inactive)	> 100 µM (inactive)	> 100 µM (inactive)	> 100 µM (inactive)	–	–	–
Cc1c(N2C(=O)C(Cl)C2c2ccc(Cl)cc2)c(=O)n(-c2ccccc2)n1C (configuration not stated)	27.7 µM (inactive)	45.5 µM (inactive)	–	71 µM (inactive)	27.1 µM (inactive)	23.9 µM (inactive)	31.4 µM (inactive)	–	> 100 µM (inactive)	18.8 µM (inactive)	> 100 µM (inactive)	–	41.6 µM (inactive)	> 100 µM (inactive)	> 100 µM (inactive)	> 100 µM (inactive)	36.1 µM (inactive)	31 µM (inactive)	> 100 µM (inactive)	> 100 µM (inactive)
O=C(/N=N/c1ccccc1Br)NNc1ccccc1Br	–	27.3 µM (inactive)	> 100 µM (inactive)	–	55.6 µM (inactive)	48.9 µM (inactive)	25.6 µM (inactive)	58.7 µM (inactive)	> 100 µM (inactive)	24.7 µM (inactive)	–	22.5 µM (inactive)	–	82.8 µM (inactive)	–	38.9 µM (inactive)	–	91.4 µM (inactive)	77.6 µM (inactive)	38.2 µM (inactive)
COc1cc(C2CC(C)(N3CCOCC3)Oc3cc4c(cc32)OCO4)cc(OC)c1OC (configuration not stated)	0.0634 µM (active)	0.026 µM (active)	–	–	0.222 µM (active)	0.209 µM (active)	0.136 µM (active)	–	5.35 µM (inactive)	0.129 µM (active)	0.845 µM (active)	0.427 µM (active)	0.458 µM (active)	> 100 µM (inactive)	–	12.2 µM (inactive)	0.0619 µM (active)	0.136 µM (active)	0.189 µM (active)	0.116 µM (active)
O=C(NC1(C(=O)NNc2nnc(-c3ccccc3)c(-c3ccccc3)n2)C(c2ccccc2)C(c2ccccc2)=NN1c1ccccc1)c1ccccc1 (configuration not stated)	> 100 µM (inactive)	–	55.8 µM (inactive)	> 100 µM (inactive)	–	> 100 µM (inactive)	> 100 µM (inactive)	> 100 µM (inactive)	> 100 µM (inactive)	> 100 µM (inactive)	> 100 µM (inactive)	63.4 µM (inactive)	–	> 100 µM (inactive)	22.6 µM (inactive)	41.4 µM (inactive)	> 100 µM (inactive)	–	–	> 100 µM (inactive)
O=C1CCCC2=C1C(c1ccc3c(c1)OCO3)Nc1ccc3ccccc3c12 (configuration not stated)	> 100 µM (inactive)	–	> 100 µM (inactive)	36.9 µM (inactive)	> 100 µM (inactive)	> 100 µM (inactive)	–	> 100 µM (inactive)	> 100 µM (inactive)	> 100 µM (inactive)	> 100 µM (inactive)	> 100 µM (inactive)	> 100 µM (inactive)	> 100 µM (inactive)	> 100 µM (inactive)	> 100 µM (inactive)	> 100 µM (inactive)	–	> 100 µM (inactive)	–
Cn1ccc(C(=O)NCCCCCNC(=O)c2ccn(C)c(=O)c2O)c(O)c1=O	> 100 µM (inactive)	–	–	–	–	> 100 µM (inactive)	–	> 100 µM (inactive)	> 100 µM (inactive)	> 100 µM (inactive)	> 100 µM (inactive)	> 100 µM (inactive)	–	> 100 µM (inactive)	–	> 100 µM (inactive)	–	> 100 µM (inactive)	> 100 µM (inactive)	> 100 µM (inactive)
